In US20110207729A1, “BICYCLIC ACYLGUANIDINE DERIVATIVE” (ASTELLAS PHARMA INC., priority 2007, published 2011):
Where a name gives a salt, the structure may show the parent alone.

Target: T1, human 5-HT5A receptor (Homo sapiens, UniProt P47898)
T1 construct: expressed in transfected cells; membrane preparation
Assay: Test on a human 5-HT5A receptor binding inhibition ([3H]5-CT)
Settings: membrane from HEK293 cells expressing human 5-HT5A receptor; Ki calculated from IC50 and Kd 4.95 nM
Description: Acquisition of HEK293 cells for forced expressions of a human 5-HT5A receptor
The ORF (open reading frame; protein coding region) of a human 5-HT5A receptor (Genbank AF498985) was cloned from a human hippocampus cDNA library, and then inserted into a pCR2.1 vector (Invitrogen), and Escherichia coli containing the plasmid was cultured in a large amount. Next, the full-length cDNA sequence of the human 5-HT5A receptor was analyzed, and recombined into a pcDNA3.1 vector (Invitrogen) as an expression vector and cultured in a large amount. HEK293 established cells (ATCC) derived from the human fetal kidney were seeded, the expression plasmid (1 μg) obtained above were added thereto with LIPOFECTAMINE 2000 (Invitrogen; 2 μl), the gene was transfected into HEK293 cells, and the expression cells were screened with a drug-resistant marker, Geneticin (G418 sulfate 500 μg/ml; Kanto Chemical Co., Inc.). Thus prepared recombinant cells which express the gene were cultured in a medium containing D-MEM (Dulbecco's modified eagle medium, Sigma), 10% FCS (Fetal calf serum: fetal bovine serum), 1% Pc./Sm (Penicillin/Streptomycin, Invitrogen), and 500 μg/ml G418 for 3 days. These experimental operations follow an manual for gene operation experiment and an instruction appended in a reagent, and the like, such as a known method (Sambrook, J. et al, Molecular Cloning—A Laboratory Manual”, Cold Spring Harabor laboratory, NY, 1989).
(1) Preparation of a Membrane from HEK293 Cells for Forced Expressions of a Human 5-HT5A Receptor
HEK293 cells for forced expressions of a human 5-HT5A receptor were cultured in a F500 plate, and scraped with a scraper. After centrifugation, a precipitate was collected, and an incubation buffer (50 mM Tris (HCl) (pH 7.4), 10 mM MgSO4, and 0.5 mM EDTA (ethylenediamine tetraacetic acid)) were added thereto. After homogenization, it was further centrifuged, and the precipitate was added with the incubation buffer, followed by thoroughly suspending. This operation was repeated, and a protein concentration was measured, thereby completing the preparation of a membrane.
(2) Test on a Human 5-HT5A Receptor Binding Inhibition
A solution of a compound to be tested and 100 μM 5-CT (5-carboxamidetriptamine) in DMSO was added to a 96-well plate at 2 μl/well, and suspended in an incubation buffer, and a membrane from HEK293 cells for forced expressions of a human 5-HT5A receptor prepared at 200 μg/ml was added at 100 μl/well. After incubation at room temperature for 15 minutes, a [^3H]5-CT solution (2 nM [^3H]5-CT, incubation buffer) was added thereto at 100 μl/well.
Separately, 100 μl of the solution was distributed into a liquid scintillation vial, and 2 ml of Aquasol II (registered trademark) was added thereto, followed by stirring. Then, a radioactivity was measured by a liquid scintillation counter. It was incubated at 37° C. for 60 minutes. The reaction mixture was sucked into 96-well GF/C filter plate that had been pre-treated with 0.2% polyethyleneimine, and washed six times with an ice-cooled, 50 mM Tris (pH 7.5) buffer. The GF/C filter plate was dried.
Microscint TMPS (registered trademark) was added thereto at 40 μl/well. A radioactivity remaining on the GF/C filter plate was measured by a top counter.
The [^3H]5-CT binding inhibiting activity by the compound to be tested in each experiment was determined as an IC50 value with a radioactivity upon addition of DMSO alone being 0% inhibition, and a radioactivity upon addition of 1 μM 5-CT being 100% inhibition. Separately, a Ki value was calculated from the Kd value of the [^3H]5-CT determined from Scatchard analysis, by the following equation.
Ki=IC50(1+Concentration of ligands added/Kd(4.95 nM))

T1 sequence (P47898 whole entry): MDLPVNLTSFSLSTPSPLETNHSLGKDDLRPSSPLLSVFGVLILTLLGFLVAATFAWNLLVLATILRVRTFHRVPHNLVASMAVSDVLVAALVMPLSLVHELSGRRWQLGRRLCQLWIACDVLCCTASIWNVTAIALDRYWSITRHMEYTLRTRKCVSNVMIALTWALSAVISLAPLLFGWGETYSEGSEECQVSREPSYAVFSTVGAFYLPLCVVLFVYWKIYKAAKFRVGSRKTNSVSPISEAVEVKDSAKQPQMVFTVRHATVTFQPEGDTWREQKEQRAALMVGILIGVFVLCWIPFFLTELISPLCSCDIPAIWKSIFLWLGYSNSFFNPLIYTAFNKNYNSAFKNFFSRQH

| Ki | SMILES |
| --- | --- |
| 3 to 30 nM | COc1c(F)cccc1-c1csc2ccc(C(=O)N=C(N)N)cc12 [Example 3-27] |
| 3 to 30 nM | NC(N)=NC(=O)c1ccc2c(c1)C(c1ccccc1)=CCCO2 [Example 3-10] |
| 3 to 30 nM | NC(N)=NC(=O)c1ccc2c(c1)C(c1c(F)cc(F)cc1F)=CC1(CCCC1)O2 [Example 1-121] |
| 0.3 to 3 nM | NC(N)=NC(=O)c1ccc2c(c1)C(c1ccncc1F)=CCC2 [Example 2-158] |
| 30 to 300 nM | NC(N)=NC(=O)c1ccc2c(c1)C(c1ccc(C(F)(F)F)cc1C(F)(F)F)=CCO2 [Example 1-83] |
| 3 to 30 nM | NC(N)=NC(=O)c1ccc2c(c1)C(c1ccccc1[N+](=O)[O-])=CCC2 [Example 2-46] |
| 3 to 30 nM | CC1C=C(c2ccsc2)c2cc(C(=O)N=C(N)N)ccc2O1 (stereo not drawn) [Example 1-167] |
| 0.3 to 3 nM | COc1ccc(C2=CCCc3ccc(C(=O)N=C(N)N)cc32)c(F)c1 [Example 2-85] |
| 30 to 300 nM | CC(C)Oc1ccc(C2=CCCc3ccc(C(=O)N=C(N)N)cc32)cc1 [Example 2-88] |
| 3 to 30 nM | NC(N)=NC(=O)c1ccc2c(c1)C(C1CCOCC1)=CCC2 [Example 2-31] |
| 3 to 30 nM | NC(N)=NC(=O)c1cc(F)c2c(c1)C(c1c(F)cc(F)cc1F)=CCO2 [Example 1-85] |
| 3 to 30 nM | COc1cccc(C2=CCCc3ccc(C(=O)N=C(N)N)cc32)c1 [Example 2-05] |
| 30 to 300 nM | NC(N)=NC(=O)c1ccc2c(c1)C(c1cncc(Cl)c1)=CCC2 [Example 2-150] |
| 30 to 300 nM | CC1C=C(c2ccncc2)c2cc(C(=O)N=C(N)N)ccc2O1 (stereo not drawn) [Example 1-133] |
| 3 to 30 nM | COc1cc(F)c(C2=CCCc3ccc(C(=O)N=C(N)N)cc32)c(F)c1 [Example 2-94] |
| 30 to 300 nM | CN(C)Cc1ccccc1C1=CCCc2ccc(C(=O)N=C(N)N)cc21 [Example 2-36] |
| 3 to 30 nM | COc1ccc(C2=CCCc3ccc(C(=O)N=C(N)N)cc32)c(OC)n1 [Example 2-173] |
| 30 to 300 nM | NC(N)=NC(=O)c1ccc2occ(-c3ccccc3)c2c1 [Example 3-09] |
| 30 to 300 nM | CC1(C)C=C(c2ccc(F)c(F)c2F)c2cc(C(=O)N=C(N)N)ccc2O1 [Example 1-119] |
| 0.3 to 3 nM | NC(N)=NC(=O)c1ccc2c(c1)C(c1ccc(F)cc1F)=CCC2 [Example 2-101] |
| 3 to 30 nM | NC(N)=NC(=O)c1ccc2c(c1)C(c1ccccc1)CCC2 (stereo not drawn) [Example 3-02] |
| 30 to 300 nM | NC(N)=NC(=O)c1ccc2oc(=O)cc(-c3c(F)cc(F)cc3F)c2c1 [Example 1-104] |

| Ki | SMILES |
| --- | --- |
| 30 to 300 nM | CC1C=C(c2cccnc2F)c2cc(C(=O)N=C(N)N)ccc2O1 (stereo not drawn) [Example 1-134] |
| 0.3 to 3 nM | NC(N)=NC(=O)c1ccc2c(c1)C(c1ccccc1F)=CCC2 [Example 2-09] |
| 3 to 30 nM | NC(N)=NC(=O)c1ccc2c(c1)C(c1cccc(CO)c1)=CCC2 [Example 2-34] |
| 30 to 300 nM | NC(N)=NC(=O)c1ccc2c(c1)C(c1cccc3c1OCCO3)=CCC2 [Example 2-189] |
| 30 to 300 nM | NC(N)=NC(=O)c1ccc2c(c1)C(c1cnccn1)=CCC2 [Example 2-86] |
| 30 to 300 nM | NC(N)=NC(=O)c1ccc2c(c1)C(c1ccc(C(F)(F)F)nc1)=CCC2 [Example 2-142] |
| 30 to 300 nM | CC1(C)CCC(c2c(F)cc(F)cc2F)c2cc(C(=O)N=C(N)N)ccc21 (stereo not drawn) [Example 3-34] |
| 3 to 30 nM | COc1cc(F)ccc1C1=C(C)CCc2ccc(C(=O)N=C(N)N)cc21 [Example 2-71] |
| 3 to 30 nM | NC(N)=NC(=O)c1ccc2c(c1)C(c1c(Cl)cncc1Cl)=CCC2 [Example 2-190] |
| 0.3 to 3 nM | CC1=C(c2ccc(C)cc2C)c2cc(C(=O)N=C(N)N)ccc2CC1 [Example 2-164] |
| 3 to 30 nM | NC(N)=NC(=O)c1ccc2c(c1)C(c1ccc3nccn3c1)=CCC2 [Example 2-171] |
| 30 to 300 nM | N#Cc1ccc(F)cc1C1=CCCc2ccc(C(=O)N=C(N)N)cc21 [Example 2-175] |
| 30 to 300 nM | COc1cccc(C#N)c1C1=CC(C)Oc2ccc(C(=O)N=C(N)N)cc21 (stereo not drawn) [Example 1-165] |
| 3 to 30 nM | N#Cc1ccc(C2=CCCOc3ccc(C(=O)N=C(N)N)cc32)cc1 [Example 3-13] |
| 30 to 300 nM | NC(N)=NC(=O)c1ccc2c(c1)C(c1ccc(Oc3ccccc3)cc1)=CCC2 [Example 2-07] |
| 30 to 300 nM | CS(=O)(=O)c1ccc(C2=CCCc3ccc(C(=O)N=C(N)N)cc32)cc1 [Example 2-97] |
| 0.3 to 3 nM | CC1=C(c2cc(F)c(F)cc2F)c2cc(C(=O)N=C(N)N)ccc2CC1 [Example 2-143] |
| 0.3 to 3 nM | Cc1sc2ccc(C(=O)N=C(N)N)cc2c1-c1ccccc1F [Example 3-35] |
| 3 to 30 nM | NC(N)=NC(=O)c1ccc2c(c1)C(c1cccc(F)c1)=CCC2 [Example 2-08] |
| 3 to 30 nM | CN(C)Cc1ccc(C2=CCCc3ccc(C(=O)N=C(N)N)cc32)cc1 [Example 2-32] |
| 30 to 300 nM | COc1cccc(C2=CCCc3ccc(C(=O)N=C(N)N)cc32)c1C#N [Example 2-181] |
| 30 to 300 nM | CC1(C)C=C(c2ccccc2)c2cc(C(=O)N=C(N)N)ccc2O1 [Example 1-04] |

| Ki | SMILES |
| --- | --- |
| 0.3 to 3 nM | COc1cc(C#N)ccc1C1=C(F)CCc2ccc(C(=O)N=C(N)N)cc21 [Example 2-166] |
| 3 to 30 nM | CC1=C(c2ccc(C)nc2)c2cc(C(=O)N=C(N)N)ccc2CC1 [Example 2-141] |
| 0.3 to 3 nM | CC1=C(c2ccc(C#N)cc2)c2cc(C(=O)N=C(N)N)ccc2CC1 [Example 2-59] |
| 0.3 to 3 nM | CC1=C(c2c(F)cc(F)cc2F)c2cc(C(=O)N=C(N)N)ccc2OC1 [Example 1-67] |
| 30 to 300 nM | NC(N)=NC(=O)c1ccc2c(c1)C(N1CCNCC1)CCC2 (stereo not drawn) [Example 3-01, N-(diaminomethylene)-8-piperazin-1-yl-5,6,7,8-tetrahydronaphthalene-2-carboxamide trihydrochloride] |
| 30 to 300 nM | Cn1cc(C2=CCOc3ccc(C(=O)N=C(N)N)cc32)cn1 [Example 1-66] |
| 3 to 30 nM | COc1ncccc1C1=CCCc2ccc(C(=O)N=C(N)N)cc21 [Example 2-140] |
| 3 to 30 nM | NC(N)=NC(=O)c1ccc2c(c1)C(c1cccc([N+](=O)[O-])c1)=CCC2 [Example 2-47] |
| 0.3 to 3 nM | Cc1cc(Cl)ccc1C1=CCCc2ccc(C(=O)N=C(N)N)cc21 [Example 2-135] |
| 3 to 30 nM | COc1ccc(C2=CCCc3ccc(C(=O)N=C(N)N)cc32)c(C(F)(F)F)c1 [Example 2-165] |
| 0.3 to 3 nM | NC(N)=NC(=O)c1ccc2c(c1)C(c1c(F)cccc1Cl)=CCO2 [Example 1-96] |
| 0.3 to 3 nM | COc1ccc(C2=C(C)CCc3ccc(C(=O)N=C(N)N)cc32)c(C)c1 [Example 2-170] |
| 0.3 to 3 nM | NC(N)=NC(=O)c1ccc2c(c1)C(c1cccc(F)c1Cl)=CCO2 [Example 1-102] |
| 3 to 30 nM | COc1ccc(F)cc1-c1csc2ccc(C(=O)N=C(N)N)cc12 [Example 3-28] |
| 0.3 to 3 nM | N#Cc1ccc(C2=CCCc3ccc(C(=O)N=C(N)N)cc32)cc1 [Example 2-25] |
| 0.3 to 3 nM | Cc1ccc(C2=CCOc3ccc(C(=O)N=C(N)N)cc32)c(Cl)c1 [Example 1-91] |
| 30 to 300 nM | NC(N)=NC(=O)c1ccc2scc(-c3cccnc3)c2c1 [Example 3-32] |
| 0.3 to 3 nM | NC(N)=NC(=O)c1ccc2c(c1)C(c1c(F)cc(F)cc1F)=CCC2 [Example 2-60] |
| 3 to 30 nM | COc1ccccc1C1=C(C)CCc2ccc(C(=O)N=C(N)N)cc21 [Example 2-58] |
| 3 to 30 nM | CSc1ccccc1C1=CCCc2ccc(C(=O)N=C(N)N)cc21 [Example 2-82] |
| 3 to 30 nM | NC(N)=NC(=O)c1ccc2c(c1)C(c1c(F)cc(F)cc1F)CCO2 (stereo not drawn) [Example 3-31] |
| 30 to 300 nM | N#CCc1ccccc1C1=CCCc2ccc(C(=O)N=C(N)N)cc21 [Example 2-114] |
